Assay results published in the NIST ThermoML archive (doi:10.1021/je300873x).

Assay: mn = molality of the nth substance listed, in mol/kg
Conditions: for surface tension liquid-gas: Pendant drop shape; for electrical conductivity: Liquid, Digital conductivity meter

CCCCCCCCCCCCCCCC[N+](C)(C)CCO.[Br-] [N-cetyl-hydroxyethyl-dimethyl ammonium bromide] + O
Conditions | electrical conductivity [S/m] | surface tension liquid-gas [mN/m]
298.15 K, m1 = 0.00016 | – | 61.83
298.15 K, m1 = 0.00033 | – | 53.61
298.15 K, m1 = 0.00049 | – | 45.49
298.15 K, m1 = 0.00059 | – | 41.63
298.15 K, m1 = 0.00069 | – | 39.31
298.15 K, m1 = 0.00074 | – | 38.39
298.15 K, m1 = 0.00075 | 0.0068 | –
298.15 K, m1 = 0.00078 | 0.007 | 37.61
298.15 K, m1 = 0.00081 | 0.0072 | –
298.15 K, m1 = 0.00083 | – | 37.58
298.15 K, m1 = 0.00084 | 0.0074 | –
298.15 K, m1 = 0.00088 | 0.0076 | 37.3
298.15 K, m1 = 0.00092 | 0.0078 | –
298.15 K, m1 = 0.00096 | 0.0079 | –
298.15 K, m1 = 0.00098 | – | 37.24
298.15 K, m1 = 0.00101 | 0.008 | –
298.15 K, m1 = 0.00106 | 0.0082 | –
298.15 K, m1 = 0.00108 | – | 37.15
298.15 K, m1 = 0.00112 | 0.0084 | –
298.15 K, m1 = 0.00118 | – | 37.12
298.15 K, m1 = 0.00119 | 0.0085 | –
298.15 K, m1 = 0.00126 | 0.0087 | –
298.15 K, m1 = 0.00135 | 0.0089 | –
298.15 K, m1 = 0.00144 | 0.0091 | –
298.15 K, m1 = 0.00156 | 0.0094 | –
298.15 K, m1 = 0.00169 | 0.0097 | –
298.15 K, m1 = 0.00184 | 0.0101 | –
298.15 K, m1 = 0.00202 | 0.0105 | –
303.15 K, m1 = 0.00075 | 0.0076 | –
303.15 K, m1 = 0.00078 | 0.0078 | –
303.15 K, m1 = 0.00081 | 0.0081 | –
303.15 K, m1 = 0.00084 | 0.0083 | –
303.15 K, m1 = 0.00088 | 0.0085 | –
303.15 K, m1 = 0.00092 | 0.0088 | –
303.15 K, m1 = 0.00096 | 0.009 | –
303.15 K, m1 = 0.00101 | 0.0091 | –
303.15 K, m1 = 0.00106 | 0.0093 | –
303.15 K, m1 = 0.00112 | 0.0095 | –
303.15 K, m1 = 0.00119 | 0.0097 | –
303.15 K, m1 = 0.00126 | 0.0099 | –
303.15 K, m1 = 0.00135 | 0.0101 | –
303.15 K, m1 = 0.00144 | 0.0104 | –
303.15 K, m1 = 0.00155 | 0.0107 | –
303.15 K, m1 = 0.00168 | 0.0111 | –
303.15 K, m1 = 0.00184 | 0.0114 | –
303.15 K, m1 = 0.00202 | 0.0119 | –
308.15 K, m1 = 0.00075 | 0.0083 | –
308.15 K, m1 = 0.00078 | 0.0086 | –
308.15 K, m1 = 0.00081 | 0.0089 | –
308.15 K, m1 = 0.00084 | 0.0092 | –
308.15 K, m1 = 0.00088 | 0.0095 | –
308.15 K, m1 = 0.00092 | 0.0097 | –
308.15 K, m1 = 0.00096 | 0.01 | –
308.15 K, m1 = 0.00101 | 0.0102 | –
308.15 K, m1 = 0.00106 | 0.0105 | –
308.15 K, m1 = 0.00112 | 0.0107 | –
308.15 K, m1 = 0.00119 | 0.0108 | –
308.15 K, m1 = 0.00126 | 0.0111 | –
308.15 K, m1 = 0.00134 | 0.0113 | –
308.15 K, m1 = 0.00144 | 0.0117 | –
308.15 K, m1 = 0.00155 | 0.012 | –
308.15 K, m1 = 0.00168 | 0.0125 | –
308.15 K, m1 = 0.00183 | 0.0129 | –
308.15 K, m1 = 0.00202 | 0.0134 | –
313.15 K, m1 = 0.00077 | 0.0094 | –
313.15 K, m1 = 0.0008 | 0.0098 | –
313.15 K, m1 = 0.00084 | 0.0101 | –
313.15 K, m1 = 0.00087 | 0.0105 | –
313.15 K, m1 = 0.00091 | 0.0108 | –
313.15 K, m1 = 0.00096 | 0.0111 | –
313.15 K, m1 = 0.00101 | 0.0114 | –
313.15 K, m1 = 0.00106 | 0.0118 | –
313.15 K, m1 = 0.00112 | 0.012 | –
313.15 K, m1 = 0.00118 | 0.0123 | –
313.15 K, m1 = 0.00126 | 0.0126 | –
313.15 K, m1 = 0.00134 | 0.0129 | –
313.15 K, m1 = 0.00144 | 0.0133 | –
313.15 K, m1 = 0.00155 | 0.0137 | –
313.15 K, m1 = 0.00168 | 0.0141 | –
313.15 K, m1 = 0.00183 | 0.0147 | –
313.15 K, m1 = 0.00201 | 0.0154 | –
318.15 K, m1 = 0.00074 | 0.0101 | –
318.15 K, m1 = 0.00077 | 0.0104 | –
318.15 K, m1 = 0.0008 | 0.0109 | –
318.15 K, m1 = 0.00084 | 0.0112 | –
318.15 K, m1 = 0.00087 | 0.0116 | –
318.15 K, m1 = 0.00091 | 0.0119 | –
318.15 K, m1 = 0.00096 | 0.0124 | –
318.15 K, m1 = 0.001 | 0.0128 | –
318.15 K, m1 = 0.00106 | 0.0132 | –
318.15 K, m1 = 0.00112 | 0.0137 | –
318.15 K, m1 = 0.00118 | 0.014 | –
318.15 K, m1 = 0.00126 | 0.0144 | –
318.15 K, m1 = 0.00134 | 0.0148 | –
318.15 K, m1 = 0.00143 | 0.0152 | –
318.15 K, m1 = 0.00154 | 0.0158 | –
318.15 K, m1 = 0.00167 | 0.0164 | –
318.15 K, m1 = 0.00183 | 0.0169 | –
318.15 K, m1 = 0.00201 | 0.0174 | –
323.15 K, m1 = 0.00074 | 0.0107 | –
323.15 K, m1 = 0.00077 | 0.0111 | –
323.15 K, m1 = 0.0008 | 0.0116 | –
323.15 K, m1 = 0.00083 | 0.012 | –
323.15 K, m1 = 0.00087 | 0.0124 | –
323.15 K, m1 = 0.00091 | 0.0129 | –
323.15 K, m1 = 0.00095 | 0.0134 | –
323.15 K, m1 = 0.001 | 0.014 | –
323.15 K, m1 = 0.00105 | 0.0143 | –
323.15 K, m1 = 0.00111 | 0.0151 | –
323.15 K, m1 = 0.00118 | 0.0157 | –
323.15 K, m1 = 0.00125 | 0.016 | –
323.15 K, m1 = 0.00134 | 0.0166 | –
323.15 K, m1 = 0.00143 | 0.0171 | –
323.15 K, m1 = 0.00154 | 0.0176 | –
323.15 K, m1 = 0.00167 | 0.0182 | –
323.15 K, m1 = 0.00182 | 0.0189 | –
323.15 K, m1 = 0.002 | 0.0196 | –
